# Source: patent US9144569B2, “Methods of administering an aromatase inhibitor, prostaglandin and GnRH for regulating ovulation in cattle” (UNIVERSITY OF SASKATCHEWAN, priority 2010, dated 2015)
# Legend:
# plasma FSH = assay: Example II: plasma FSH during 3-day letrozole regimen; format: in vivo, cattle; details: 3-day regimen
# Protocol: Four days after follicular ablation, heifers were given 500 μg of cloprostenol (PGF, Estrumate, Schering-Plough Animal Health, Pointe-Claire, QC, Canada) intramuscularly (im) to induce regression of the CL and to synchronize ovulation. The experiment was performed in two replicates (n=20-27 per replicate) and each heifer was used only once. In replicate 1, heifers were assigned randomly at the time of ovulation (Day 0) to the following groups and given a 3-day regimen of letrozole from Days 1 to 3 (n=5), Days 3 to 5 (n=5), Days 5 to 7 (n=5), or no treatment (control group, n=5). In replicate 2, heifers were similarly assigned to groups and given letrozole from Days 1 to 3, (n=5), Days 3 to 5 (n=4), or Days 5 to 7 (n=4), but untreated control heifers were arranged in three sub-groups to serve as contemporaneous controls for each letrozole-group during intensive blood sampling periods (i.e., control Days 1 to 3, n=4; control Days 3 to 5, n=4; and control Days 5 to 7, n=5). For practical purposes, the total dose of letrozole (250 μg/kg) was calculated on the basis of an average weight of 350 kg for all heifers and administered intravenously in daily divided doses over 3 days (85 μg/kg per day). […]
# Plasma FSH concentrations were determined in duplicate using a double-antibody radioimmunoassay using NIDDK-anti-oFSH-1 primary antibody and expressed as USDA bovine FSH-I1 units. […]
# [1] = Example II: plasma letrozole concentration during 3-day regimen (HPLC/MS); format: in vivo, cattle; details: for plasma letrozole concentration, overall mean: 85 μg/kg/day iv
# Protocol: (§1) Four days after follicular ablation, heifers were given 500 μg of cloprostenol (PGF, Estrumate, Schering-Plough Animal Health, Pointe-Claire, QC, Canada) intramuscularly (im) to induce regression of the CL and to synchronize ovulation. The experiment was performed in two replicates (n=20-27 per replicate) and each heifer was used only once. In replicate 1, heifers were assigned randomly at the time of ovulation (Day 0) to the following groups and given a 3-day regimen of letrozole from Days 1 to 3 (n=5), Days 3 to 5 (n=5), Days 5 to 7 (n=5), or no treatment (control group, n=5). In replicate 2, heifers were similarly assigned to groups and given letrozole from Days 1 to 3, (n=5), Days 3 to 5 (n=4), or Days 5 to 7 (n=4), but untreated control heifers were arranged in three sub-groups to serve as contemporaneous controls for each letrozole-group during intensive blood sampling periods (i.e., control Days 1 to 3, n=4; control Days 3 to 5, n=4; and control Days 5 to 7, n=5). For practical purposes, the total dose of letrozole (250 μg/kg) was calculated on the basis of an average weight of 350 kg for all heifers and administered intravenously in daily divided doses over 3 days (85 μg/kg per day). For intravenous injection, letrozole was prepared in 95% ethanol to a final concentration of 5 mg/ml, resulting in an injection volume of 6 mL/day.
# (§2) Blood samples were collected by jugular or coccygeal venipuncture into 10 ml heparinised, vacuum tubes (Vacutainer tubes; Becton Dickinson Vacutainer Systems, Franklin Lakes, N.J., USA). Blood samples were collected daily from pre-treatment ovulation to post-treatment ovulation. In replicate 1, additional samples were collected from letrozole-treated heifers every 12 hours from the beginning of treatment to first wave emergence. In replicate 2, heifers were sampled at 15 minute intervals for the first 8 hours after the second dose of letrozole (i.e., second day of treatment) using an indwelling jugular catheter, as described previously. Blood samples were centrifuged at 1500×g for 20 minutes, and plasma was separated and stored in plastic tubes at −20° C.
# Plasma concentrations of letrozole were determined from samples collected every 12 hours from pre-treatment to one day after cessation of treatment using high performance liquid chromatographytandem mass spectrometry (HPLC/MS) as described in Chapter 4, Section 4.3.6.
# circulating estradiol = details: boars [56]; cited from earlier work
# plasma LH = assay: Example II: plasma LH and LH pulsatility during 3-day letrozole regimen; format: in vivo, cattle
# Protocol: as §1, §2
# Plasma LH concentrations were determined in duplicate using a double-antibody radioimmunoassay (NIDDK-bLH4). The minimum and maximum values along the standard curve were 0.06 and 8 ng/mL, respectively. The intra- and inter-assay coefficients of variation were 7.9% and 2.5%, respectively, for low reference samples (mean, 0.85 ng/mL) and 8.6% and 9.5%, respectively, for high reference samples (mean, 2.5 ng/mL).
# Statistical analyses were done using the Statistical Analysis System software package (SAS Learning Edition 9.1, 2006; SAS Institute Inc., Cary, N.C., USA). Time-series hormone data, plasma letrozole concentration, and follicular and luteal diameter profiles were analysed by repeated measures, using the PROC MIXED procedure. The main effects were treatment, time, and their interactions. […] Single point measurements (interwave and interovulatory intervals, interval from ovulation to onset of CL regression, mean and basal LH concentrations, LH pulse amplitude and frequency, and pharmacokinetic parameters for letrozole) were analysed by analysis of variance. […] If significant main effects or interactions (P≦0.05) were detected, Tukey's post-hoc test was used for multiple comparisons.
# Due to individual variability in circulating hormone concentrations among heifers, and because our objective was to determine the effect of treatment within individuals, data on LH and FSH concentrations were transformed to a percentage of the mean concentration of the two first data points collected (Days 0 and 1) for each individual heifer before analysis of variance for repeated measures. For the same reasons, estradiol concentrations were transformed to a percentage of the mean concentration of two pre-treatment data points ([…] each individual heifer before statistical analysis. […]
# heifers = assay: Example IV: intravaginal device containing 1 g letrozole in heifers, ovulation and ovarian structures; format: in vivo, cattle
# Protocol: To test the hypothesis that letrozole treatment during the preovulatory stage, initiated prior to onset of follicular selection and prolonged for a 7-day period will be able to induce the development of more than one follicle to a preovulatory size and to delay the occurrence of ovulation. To develop a practical route of administration of letrozole in cattle.
# Five to eight days after PGF-induced ovulation, FA was performed followed by a double dose of PGF 60 and 72 hr later. Heifers were randomly divided into two groups and received from Day 1 (Day 0=wave emergence) until Day 7 or until ovulation is detected: • intravaginal device containing 1 g of letrozole (n=15) • Intravaginal blank device (letrozole free, n=15)
# Transrectal ultrasound examination and blood sample collection were performed daily from day of ablation until Day 12 post-ovulation. blood samples were collected frequently at the time of catheter placement, at 0, 10, 20, 30 min, 1, 1.5, 2, 3, 4, 6, 8, 12 and 24 hours post-treatment
# [2] = 85 μg/kg/day iv for 3 days, all three groups
# [3] = treatment period Day 1-3, 15 min samples over 8 hours
# [4] = treatment period Day 3-5, 15 min samples over 8 hours
# [5] = treatment period Day 5-7, 15 min samples over 8 hours
compound,measurement,setting,value
"N#Cc1ccc(C(c2ccc(C#N)cc2)n2cncn2)cc1 [Letrozole, letrozole]",plasma FSH levels compared with respective controls,plasma FSH,No differences
same,time after initiation of treatment by which plasma letrozole was elevated,[1]; [2],≤ 12 h
same,time by which plasma letrozole declined to approximately half peak values,[1]; [2],≤ 108 h
same,time by which plasma letrozole reached peak levels,[1]; [2],≤ 60 h
same,"plasma letrozole concentration, overall mean",[1]; Days 1 to 3,68.6 ± 4.79 ng/mL
same,"plasma letrozole concentration, overall mean",[1]; Days 3 to 5,43.9 ± 4.75 ng/mL
same,"plasma letrozole concentration, overall mean",[1]; Days 5 to 7,55.6 ± 4.75 ng/mL
same,mean circulating level of letrozole during the first 96 hours,"[1]; 250 μg/kg, 3-day protocol",60.8 ± 3.36 ng/mL
same,concentration at 96 hours,"[1]; female, bovine, plasma, intravenous, 85 μg/kg per day, 250 μg/kg divided in a 3-day regimen, read-out: mean concentration of letrozole in the circulation at 96 hours",51.6 ± 4.33 ng/mL
same,reduction in circulating estradiol concentrations,circulating estradiol,88%
same,"plasma LH concentrations among groups, daily samples",plasma LH; 3-day regimen,No significant differences
same,"plasma LH, percent of the mean of Days 0 and 1",plasma LH; AM samples collected during treatment,93.6±14.85%
same,Basal LH,plasma LH; [3],0.38 ± 0.11 ng/mL
same,LH pulse amplitude,plasma LH; [3],0.46 ± 0.15 ng/mL
same,LH pulse frequency,plasma LH; [3],0.95 pulses/h
same,Mean LH,"plasma LH; treatment period Day 1-3, 15 min samples over 8 hours after second dose",0.52 ± 0.15 ng/mL
same,Basal LH,plasma LH; [4],0.08 ± 0.03 ng/mL
same,LH pulse amplitude,plasma LH; [4],0.40 ± 0.18 ng/mL
same,LH pulse frequency,plasma LH; [4],0.53 pulses/h
same,Mean LH,plasma LH; [4],0.15 ± 0.5 ng/mL
same,Basal LH,plasma LH; [5],0.13 ± 0.02 ng/mL
same,LH pulse amplitude,plasma LH; [5],0.88 ± 0.37 ng/mL
same,LH pulse frequency,plasma LH; [5],0.41 pulses/h
same,Mean LH,plasma LH; [5],0.21 ± 0.04 ng/mL
same,size of the ovulated dominant follicle (DF),heifers,larger DF
same,delay of ovulation,heifers; Day 1 to Day 7 of pre-ovulatory wave,24 h
